Values of other authors in paper PMC7904743, “WIDOCK: a reactive docking protocol for virtual screening of covalent inhibitors” (Journal of Computer-Aided Molecular Design, 2021).
Where two headings read alike, the source gives them in different places.

How the values were obtained:
OTUB2 = conditions: experimental actives if % labeling higher than 50%, cited from earlier work
NUDT7 = conditions: protein labeling at 200 μM; experimental actives if % labeling higher than 50%; cited from earlier work
[1] = thiol reactivity, cited from earlier work
[2] = natural log of average rate constant k
[3] = natural logarithm of average rate constant
[4] = natural log of average kinetic rate constant
[5] = natural log of average rate constant

| SMILES | OTUB2 % labeling (OTUB2) | NUDT7 % labeling (NUDT7) | ln(avg k) [1, 2] | ln(avg k) [1, 3] | OTUB2 % labeling (OTUB2; OTUB2 protein labeling) | ln(avg k) [1, 4] | ln(avg k) [1, 5] |
| --- | --- | --- | --- | --- | --- | --- | --- |
| Cc1c(C#N)c(NC(=O)CCl)n(-c2cccc(F)c2)c1C [PCM-0102146, Cc1c(C#N)c(NC(=O)CCl)n(-c2cccc(F)c2)c1C] | 10% | 58% | -15.589 | -15.589 | – | – | – |
| Cc1noc(C)c1CNC(=O)CCl [PCM-0102780, Cc1noc(C)c1CNC(=O)CCl] | – | 11% | – | – | 0% | -16.766 | -16.766 |
| O=C(CCl)N1CCN(Cc2ccc3c(c2)OCCO3)CC1 [PCM-0102386, O=C(CCl)N1CCN(Cc2ccc3c(c2)OCCO3)CC1] | 0% | 0% | -15.669 | -15.669 | – | – | – |
| CC(c1cc2ccccc2o1)N(C)C(=O)CCl (stereo not shown) [PCM-0102971, CC(c1cc2ccccc2o1)N(C)C(=O)CCl] | – | 66% | – | – | 0% | -16.092 | -16.092 |
| COC(=O)c1ccccc1N(C)C(=O)CCl [PCM-0102589, COC(=O)c1ccccc1N(C)C(=O)CCl] | 0% | 15% | -16.323 | -16.323 | – | – | – |
| CC(C)C(=O)NNC(=O)CCl [PCM-0103014, CC(C)C(=O)NNC(=O)CCl] | – | 0% | – | – | 9% | -17.522 | -17.522 |
| CCC1CN(C(=O)CCl)CCO1 (stereo not shown) [PCM-0102436, CCC1CN(C(=O)CCl)CCO1] | 0% | 0% | -15.658 | -15.658 | – | – | – |
| O=C(CCl)N1N=C(c2ccco2)CC1c1ccco1 (stereo not shown) [PCM-0102380, O=C(CCl)N1N=C(c2ccco2)CC1c1ccco1] | 0% | 54% | -15.395 | -15.395 | – | – | – |
| CC(C)N(C(=O)CCl)C1CCCC1 [PCM-0102948, CC(C)N(C(=O)CCl)C1CCCC1] | – | 13% | – | – | 0% | -16.391 | -16.391 |
| COc1ccc(C2CCCCCN2C(=O)CCl)cc1 (stereo not shown) [PCM-0102558, COc1ccc(C2CCCCCN2C(=O)CCl)cc1] | 0% | 100% | -16.020 | -16.020 | – | – | – |
| O=C(CCl)NCC1CCCO1 (stereo not shown) [PCM-0102356, O=C(CCl)NCC1CCCO1] | 5% | 0% | -16.672 | -16.672 | – | – | – |
| Cc1ccc(-c2cc(NC(=O)CCl)on2)cc1 [PCM-0102382, Cc1ccc(-c2cc(NC(=O)CCl)on2)cc1] | 45% | 81% | -15.819 | -15.819 | – | – | – |
| CN1CCN(C(=O)CCl)CC1 [PCM-0102921, CN1CCN(C(=O)CCl)CC1] | – | 0% | – | – | 0% | -17.315 | -17.315 |
| O=C(CCl)N1CCCC1c1ccsc1 (stereo not shown) [PCM-0102693, O=C(CCl)N1CCCC1c1ccsc1] | 0% | 20% | -15.634 | -15.634 | – | – | – |
| CN(C)C(=O)c1ccc(NC(=O)CCl)cc1 [PCM-0102877, CN(C)C(=O)c1ccc(NC(=O)CCl)cc1] | – | 0% | – | – | 0% | -15.682 | -15.682 |
| O=C(CCl)N1CC=C(c2ccccc2)CC1 [PCM-0103038, O=C(CCl)N1CC=C(c2ccccc2)CC1] | – | 0% | – | – | 9% | -16.846 | -16.846 |
| Cc1ccsc1CN(C)C(=O)CCl [PCM-0102785, Cc1ccsc1CN(C)C(=O)CCl] | – | 20% | – | – | 0% | -15.849 | -15.849 |
| CC(C)N(C)C(=O)C1CCN(C(=O)CCl)CC1 [PCM-0102974, CC(C)N(C)C(=O)C1CCN(C(=O)CCl)CC1] | – | 0% | – | – | 0% | -15.247 | -15.247 |
| CC(C)(C)OC(=O)N1CCN(C(=O)CCl)CC1 [PCM-0102786, CC(C)(C)OC(=O)N1CCN(C(=O)CCl)CC1] | – | 0% | – | – | 0% | -15.946 | -15.946 |
| O=C(CCl)N(CC(F)(F)F)c1ccc(Cl)cc1 [PCM-0102155, O=C(CCl)N(CC(F)(F)F)c1ccc(Cl)cc1] | 0% | 79% | -15.883 | -15.883 | – | – | – |
| CN(C)C(=O)CNC(=O)CCl [PCM-0102365, CN(C)C(=O)CNC(=O)CCl] | 0% | 0% | -17.142 | -17.142 | – | – | – |
| CNC(=O)C1CCN(C(=O)CCl)CC1 [PCM-0102815, CNC(=O)C1CCN(C(=O)CCl)CC1] | – | 0% | – | – | 8% | -15.403 | -15.403 |

| SMILES | OTUB2 % labeling (OTUB2) | NUDT7 % labeling (NUDT7) | ln(avg k) [1, 2] | ln(avg k) [1, 3] | OTUB2 % labeling (OTUB2; OTUB2 protein labeling) | ln(avg k) [1, 4] | ln(avg k) [1, 5] |
| --- | --- | --- | --- | --- | --- | --- | --- |
| O=C1CN(C(=O)CCl)CCN1 [PCM-0103008, O=C1CN(C(=O)CCl)CCN1] | – | 0% | – | – | 0% | -15.775 | -15.775 |
| Cc1ccccc1CC(=O)NNC(=O)CCl [PCM-0102829, Cc1ccccc1CC(=O)NNC(=O)CCl] | – | 0% | – | – | 30% | -17.272 | -17.272 |
| Cc1nc(C2(NC(=O)CCl)CCCCC2)no1 [PCM-0102983, Cc1nc(C2(NC(=O)CCl)CCCCC2)no1] | – | 10% | – | – | 0% | -17.277 | -17.277 |
| O=C(CCl)NCc1cccnc1 [PCM-0102497, O=C(CCl)NCc1cccnc1] | 5% | 0% | -17.127 | -17.127 | – | – | – |
| COC(=O)C1(NC(=O)CCl)CCCCC1 [PCM-0102734, COC(=O)C1(NC(=O)CCl)CCCCC1] | 0% | 0% | – | -16.826 | – | – | -16.826 |
| O=C(CCl)NC1CS(=O)(=O)CC1Cl (stereo not shown) [PCM-0102291, O=C(CCl)NC1CS(=O)(=O)CC1Cl] | 0% | 12% | -16.221 | -16.221 | – | – | – |
| O=C(CCl)N1CCc2sccc2C1c1ccccc1 (stereo not shown) [PCM-0103024, O=C(CCl)N1CCc2sccc2C1c1ccccc1] | – | 69% | – | – | 0% | -15.442 | -15.442 |
| O=C(NC1CCN(C(=O)CCl)CC1)c1ccccc1 [PCM-0102575, O=C(NC1CCN(C(=O)CCl)CC1)c1ccccc1] | 9% | 9% | -15.398 | -15.398 | – | – | – |
| O=C(CCl)N1CCSC1c1ccccc1F (stereo not shown) [PCM-0102293, O=C(CCl)N1CCSC1c1ccccc1F] | 12% | 83% | -15.618 | -15.618 | – | – | – |
| COC(=O)c1ccc(NC(=O)CCl)cc1 [PCM-0102204, COC(=O)c1ccc(NC(=O)CCl)cc1] | 0% | 0% | -15.628 | -15.628 | – | – | – |
| CC1CCc2ccccc2N1C(=O)CCl (stereo not shown) [PCM-0102822, CC1CCc2ccccc2N1C(=O)CCl] | – | 0% | – | – | 0% | -16.310 | -16.310 |
| CCc1ccccc1NC(=O)CCl [PCM-0102369, CCc1ccccc1NC(=O)CCl] | 0% | 0% | -16.517 | -16.517 | – | – | – |
| CN(Cc1ccccc1F)C(=O)CCl [PCM-0102787, CN(Cc1ccccc1F)C(=O)CCl] | – | 0% | – | – | 0% | -16.194 | -16.194 |
| O=C(CCl)NCC1CCC1 [PCM-0103065, O=C(CCl)NCC1CCC1] | – | 0% | – | – | 0% | -17.462 | -17.462 |
| CN(CC12CC3CC(CC(C3)C1)C2)C(=O)CCl [PCM-0102942, CN(CC12CC3CC(CC(C3)C1)C2)C(=O)CCl] | – | 26% | – | – | 10% | -15.698 | -15.698 |
| N#CC1(NC(=O)CCl)CCCCCC1 [PCM-0102465, N#CC1(NC(=O)CCl)CCCCCC1] | 0% | 0% | -16.080 | -16.080 | – | – | – |
| Cc1cc(C)c(NC(=O)CCl)c(C)c1 [PCM-0102352, Cc1cc(C)c(NC(=O)CCl)c(C)c1] | 0% | 0% | -17.111 | -17.111 | – | – | – |
| O=C(CCl)N1CCN(S(=O)(=O)c2ccccc2Cl)CC1 [PCM-0102837, O=C(CCl)N1CCN(S(=O)(=O)c2ccccc2Cl)CC1] | – | 18% | – | – | 0% | -15.224 | -15.224 |
| Cc1ccc(N(C(=O)CCl)C2C=CS(=O)(=O)C2)cc1C (stereo not shown) [PCM-0103082, Cc1ccc(N(C(=O)CCl)C2C=CS(=O)(=O)C2)cc1C] | – | 15% | – | – | 0% | -15.512 | -15.512 |
| CCN(C(=O)CCl)c1ccccc1C [PCM-0102980, CCN(C(=O)CCl)c1ccccc1C] | – | 43% | – | – | 0% | -16.814 | -16.814 |
| O=C(CCl)NC(=O)NCc1cccs1 [PCM-0102753, O=C(CCl)NC(=O)NCc1cccs1] | – | 0% | – | – | 23% | -15.984 | -15.984 |
